Experimental data from patent US9409907B2, “Inhibitor compounds” (Cancer Research Technology Limited, priority 2012, dated 2016).

target: full length MPS1 (Homo sapiens (Human), UniProt P33981); assay: Measurement of inhibition of MPS1 kinase (Caliper EZ reader mobility-shift enzyme assay); format: biochemical; conditions: full length MPS1 12.5 nM or 3 nM, H236 peptide 5 μM, ATP 10 μM, 60 min at room temperature
Protocol: Measurement of Inhibition of MPS1 Kinase
The reaction was carried out for 60 min at room temperature and stopped by the addition of buffer (10 μl) containing 20 mM EDTA, 0.05% (v/v) Brij-35, in 0.1M HEPES-buffered saline (Free acid, Sigma, UK). The plate was read on a Caliper EZ reader II (Caliper Life Sciences).
The % inhibition of the compounds is calculated relative to the means of selected control wells.

Chain of full length MPS1 (P33981 whole entry): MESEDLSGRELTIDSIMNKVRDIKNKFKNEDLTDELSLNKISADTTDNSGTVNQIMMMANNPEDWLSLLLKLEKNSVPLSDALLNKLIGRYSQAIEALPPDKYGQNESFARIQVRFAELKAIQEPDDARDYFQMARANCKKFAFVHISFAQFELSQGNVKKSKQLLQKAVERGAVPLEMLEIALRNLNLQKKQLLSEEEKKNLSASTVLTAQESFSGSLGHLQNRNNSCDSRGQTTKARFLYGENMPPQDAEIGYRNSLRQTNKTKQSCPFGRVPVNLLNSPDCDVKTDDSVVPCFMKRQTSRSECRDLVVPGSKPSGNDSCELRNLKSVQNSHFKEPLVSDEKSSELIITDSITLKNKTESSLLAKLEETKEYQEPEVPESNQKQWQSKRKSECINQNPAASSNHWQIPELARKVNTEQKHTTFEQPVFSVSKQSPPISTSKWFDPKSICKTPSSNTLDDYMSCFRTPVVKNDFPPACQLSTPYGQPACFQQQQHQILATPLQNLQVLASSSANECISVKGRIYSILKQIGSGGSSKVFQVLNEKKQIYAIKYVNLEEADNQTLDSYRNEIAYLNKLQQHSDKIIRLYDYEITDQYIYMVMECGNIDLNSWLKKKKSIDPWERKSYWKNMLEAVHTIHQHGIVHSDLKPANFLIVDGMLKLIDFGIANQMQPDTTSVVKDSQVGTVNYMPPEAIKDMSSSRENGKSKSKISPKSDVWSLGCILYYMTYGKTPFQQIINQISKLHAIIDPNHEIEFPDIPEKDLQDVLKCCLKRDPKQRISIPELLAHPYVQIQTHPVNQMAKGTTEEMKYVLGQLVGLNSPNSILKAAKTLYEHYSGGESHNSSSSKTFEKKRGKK

Which IC50 does the source give for `COc1cc(-c2cnn(C)c2C)ccc1Nc1ncc2ccnc(NCC3(C)COC3)c2n1` [Example 146, N^2-(4-(1,5-dimethyl-1H-pyrazol-4-yl)-2-methoxyphenyl)-N^8-((3-methyloxetan-3-yl)methyl)pyrido[3,4-d]pyrimidine-2,8-diamine] here?
The IC50 was 4 nM.

How did the IC50 turn out when `COc1nc(S(C)(=O)=O)ccc1Nc1ncc2ccnc(NCC(C)(C)C)c2n1` [Example 46, N2-(2-methoxy-6-(methylsulfonyl)pyridin-3-yl)-N8-neopentylpyrido[3,4-d]pyrimidine-2,8-diamine] was run?
Its IC50 is 17 nM.

With `COCCn1c(-c2ccc(Nc3ncc4ccnc(NCC(C)(C)OC)c4n3)c(OC)c2)cnc1C` [Example 186] as the compound, how does the IC50 read?
The IC50 was 4 nM.

For `COc1cc(-c2nncn2C)ccc1Nc1ncc2c(C)cnc(N3CC4(CCOC4)C3)c2n1` [Example 157, N-(2-methoxy-4-(4-methyl-4H-1,2,4-triazol-3-yl)phenyl)-5-methyl-8-(6-oxa-2-azaspiro[3.4]octan-2-yl)pyrido[3,4-d]pyrimidin-2-amine], which IC50 is on record?
The IC50 was 6 nM.

How did the IC50 turn out when `COc1cc(-c2cnn(C)c2)ccc1Nc1ncc2ccnc(N(C)C3CCOCC3)c2n1` [Example 81, N2-(2-methoxy-4-(1-methyl-1H-pyrazol-4-yl)phenyl)-N8-methyl-N8-(tetrahydro-2H-pyran-4-yl)pyrido[3,4-d]pyrimidine-2,8-diamine] was run?
The IC50 was 33 nM.

`COc1cc(-c2cncn2C)ccc1Nc1cc2c(-c3cnn(C)c3)cccc2cn1` [Example 14, N-(2-methoxy-4-(1-methyl-1H-imidazol-5-yl)phenyl)-5-(1-methyl-1H-pyrazol-4-yl)isoquinolin-3-amine] was tested. Which IC50 did it give?
Its IC50 is 7 nM.

How did the IC50 turn out when `COc1cc(-c2cnn(C)c2)ccc1Nc1ncc2ccnc(NCC(C)(C)CO)c2n1` [Example 74, 3-((2-((2-methoxy-4-(1-methyl-1H-pyrazol-4-yl)phenyl)amino)pyrido[3,4-d]pyrimidin-8-yl)amino)-2,2-dimethylpropan-1-ol] was run?
The IC50 was 4 nM.

`COC(C)(C)CNc1nc(C)cc2cnc(Nc3ccc(-c4cnn(C)c4)cc3OC(F)F)nc12` [Example 197] was tested. Which IC50 did it give?
Its IC50 is 34 nM.

`COc1cc(Cl)ccc1Nc1ncc2ccnc(N3CCC4(COC4)C3)c2n1` [Example 178, N-(4-Chloro-2-methoxyphenyl)-8-(2-oxa-6-azaspiro[3.4]octan-6-yl)pyrido[3,4-d]pyrimidin-2-amine] was tested. Which IC50 did it give?
The IC50 was 24 nM.

For `Cc1ncc(-c2ccc(Nc3cc4c(-c5cnn(C)c5)cccc4cn3)c(Cl)c2)n1C` [Example 11, N-(2-chloro-4-(1,2-dimethyl-1H-imidazol-5-yl)phenyl)-5-(1-methyl-1H-pyrazol-4-yl)isoquinolin-3-amine], which IC50 is on record?
The IC50 was 6 nM.

`COc1cc(C(=O)N2CC(OC)C2)ccc1Nc1cc2c(-c3cnn(CCN(C)C)c3)cccc2cn1` [Example 1, (4-((5-(1-(2-(Dimethylamino)ethyl)-1H-pyrazol-4-yl)isoquinolin-3-yl)amino)-3-methoxyphenyl)(3-methoxyazetidin-1-yl)methanone] was tested. Which IC50 did it give?
Its IC50 is 61 nM.

Which IC50 does the source give for `COc1cc(C(=O)N2CC(OC)C2)ccc1Nc1cc2c(-c3cnn(C4CCN(C)CC4)c3)cccc2cn1` [Example 19, (3-Methoxy-4-((5-(1-(1-methylpiperidin-4-yl)-1H-pyrazol-4-yl)isoquinolin-3-yl)amino)phenyl)(3-methoxyazetidin-1-yl)methanone] here?
Its IC50 is 31 nM.

For `COc1cc(-c2nnnn2C)ccc1Nc1ncc2ccnc(NCC(C)(C)OC)c2n1` [Example 163, N^8-(2-Methoxy-2-methylpropyl)-N^2-(2-methoxy-4-(1-methyl-1H-tetrazol-5-yl)phenyl)pyrido[3,4-d]pyrimidine-2,8-diamine], which IC50 is on record?
Its IC50 is 2 nM.

For `COc1cc(-c2cnn(C)c2)ccc1Nc1ncc2ccnc(N3CC4(COC4)C3)c2n1` [Example 115, N-(2-methoxy-4-(1-methyl-1H-pyrazol-4-yl)phenyl)-8-(2-oxa-6-azaspiro[3.3]heptan-6-yl)pyrido[3,4-d]pyrimidin-2-amine], which IC50 is on record?
Its IC50 is 3 nM.

Which IC50 does the source give for `COc1cc(-c2cnn(C)c2CO)ccc1Nc1ncc2ccnc(NCC3(C)CCOC3)c2n1` (stereo not drawn) [Example 185] here?
The IC50 was 1 nM.

For `COc1cc(-c2cnn(C)c2)ccc1Nc1ncc2ccnc(NC3CCN(C)CC3)c2n1` [Example 113, N^2-(2-methoxy-4-(1-methyl-1H-pyrazol-4-yl)phenyl)-N^8-(1-methylpiperidin-4-yl)pyrido[3,4-d]pyrimidine-2,8-diamine], which IC50 is on record?
The IC50 was 9 nM.

`COc1cc(-c2cnn(C)c2)ccc1Nc1ncc2ccnc(-c3ccncc3)c2n1` [Example 209, N-(2-Methoxy-4-(1-methyl-1H-pyrazol-4-yl)phenyl)-8-(pyridin-4-yl)pyrido[3,4-d]pyrimidin-2-amine pyridin-4-ylboronate] was tested. Which IC50 did it give?
The IC50 was 7 nM.

With `COCCn1cc(-c2cccc3cnc(Nc4ccc(C(=O)N5CC(OC)C5)cc4OC)cc23)cn1` [Example 2, (3-methoxy-4-((5-(1-(2-methoxyethyl)-1H-pyrazol-4-yl)isoquinolin-3-yl)amino)phenyl)(3-methoxyazetidin-1-yl)methanone] as the compound, how does the IC50 read?
The IC50 was 14 nM.

Which IC50 does the source give for `COc1cc(-c2cnn(C)c2)ccc1Nc1ncc2ccnc(NC[C@@]3(C)CCOC3)c2n1` [Example 142, (R)—N^2-(2-methoxy-4-(1-methyl-1H-pyrazol-4-yl)phenyl)-N^3-((3-methyltetrahydrofuran-3-yl)methyl)pyrido[3,4-d]pyrimidine-2,8-diamine] here?
The IC50 was 3 nM.

`COc1cc(-c2cnn(C)c2)ccc1Nc1ncc2cc(C3CC3)nc(N3CCC4(COC4)C3)c2n1` [Example 136, 6-Cyclopropyl-N-(2-methoxy-4-(1-methyl-1H-pyrazol-4-yl)phenyl)-8-(2-oxa-6-azaspiro[3.4]octan-6-yl)pyrido[3,4-d]pyrimidin-2-amine] was tested. Which IC50 did it give?
The IC50 was 93 nM.

Which IC50 does the source give for `COCC(CO)Nc1nccc2cnc(Nc3ccc(-c4cnn(C)c4)cc3OC)nc12` (stereo not drawn) [Example 131, 3-Methoxy-2-(2-(2-methoxy-4-(1-methyl-1H-pyrazol-4-yl)phenylamino)pyrido[3,4-d]pyrimidin-8-ylamino)propan-1-ol] here?
The IC50 was 4 nM.

`COc1cc(-c2cnn(C)c2)ccc1Nc1ncc2ccnc(NS(=O)(=O)C(C)(C)C)c2n1` [Example 107, N-(2-(2-methoxy-4-(1-methyl-1H-pyrazol-4-yl)phenylamino)pyrido[3,4-d]pyrimidin-8-yl)-2-methylpropane-2-sulfonamide] was tested. Which IC50 did it give?
The IC50 was 39 nM.

For `COc1cc(-c2cnn(C)c2)ccc1Nc1ncc2ccnc(N3CC(F)(F)C3)c2n1` [Example 63, 8-(3,3-difluoroazetidin-1-yl)-N-(2-methoxy-4-(1-methyl-1H-pyrazol-4-yl)phenyl)pyrido[3,4-d]pyrimidin-2-amine], which IC50 is on record?
Its IC50 is 25 nM.

For `COc1cc(-c2cnn(C)c2)ccc1Nc1ncc2ccnc(NC(C)C3CC3)c2n1` (stereo not drawn) [Example 75, N8-(1-cyclopropylethyl)-N2-(2-methoxy-4-(1-methyl-1H-pyrazol-4-yl)phenyl)pyrido[3,4-d]pyrimidine-2,8-diamine], which IC50 is on record?
Its IC50 is 4 nM.

For `COc1cc(-c2nncn2C)ccc1Nc1ncc2c(C)cnc(NCC(C)(C)C)c2n1` [Example 151, N^2-(2-methoxy-4-(4-methyl-4H-1,2,4-triazol-3-yl)phenyl)-5-methyl-N^8-neopentylpyrido[3,4-d]pyrimidine-2,8-diamine], which IC50 is on record?
The IC50 was 2 nM.

With `COc1cc(-c2c(C)noc2C)ccc1Nc1cc2c(-c3cnn(C)c3)cccc2cn1` [Example 18, N-(4-(3,5-dimethylisoxazol-4-yl)-2-methoxyphenyl)-5-(1-methyl-1H-pyrazol-4-yl)isoquinolin-3-amine] as the compound, how does the IC50 read?
The IC50 was 95 nM.

`COc1cc(-c2cnc(C)n2C)ccc1Nc1ncc2cc(C)nc(NCC(C)(C)C)c2n1` [Example 177, N2-(4-(1,2-dimethyl-1H-imidazol-5-yl)-2-methoxyphenyl)-6-methyl-N8-neopentylpyrido[3,4-d]pyrimidine-2,8-diamine] was tested. Which IC50 did it give?
Its IC50 is 5 nM.

With `COc1cc(C(=O)N(C)C)ccc1Nc1cc2c(-c3cnn(C)c3)cccc2cn1` [Example 25] as the compound, how does the IC50 read?
Its IC50 is 28 nM.

With `COc1cc(-c2cnn(C)c2)ccc1Nc1ncc2ccnc(-c3cncnc3)c2n1` [Example 208, N-(2-methoxy-4-(1-methyl-1H-pyrazol-4-yl)phenyl)-8-(pyrimidin-5H)pyrido[3,4-d]pyrimidin-2-amine] as the compound, how does the IC50 read?
The IC50 was 200 nM.

With `COc1cc(C(=O)N2CC(OC)C2)ccc1Nc1cc2c(-c3cnn(C)c3)cccc2cn1` [Example 24] as the compound, how does the IC50 read?
The IC50 was 20 nM.

For `COc1cc(-c2cnn(C)c2CO)ccc1Nc1ncc2cc(C)nc(NCC(C)(C)OC)c2n1` [Example 198], which IC50 is on record?
Its IC50 is 9 nM.

Which IC50 does the source give for `COc1cc(-c2cnn(C)c2)ccc1Nc1ncc2ccnc(NCC3(O)CCC3)c2n1` [Example 89, 1-((2-(2-methoxy-4-(1-methyl-1H-pyrazol-4-yl)phenylamino)pyrido[3,4-d]pyrimidin-8-ylamino)methyl)cyclobutanol] here?
The IC50 was 7 nM.

Which IC50 does the source give for `COc1cc(-c2cnn(CCO)c2)ccc1Nc1ncc2ccnc(NC3CCOCC3)c2n1` [Example 44, 2-(4-(3-methoxy-4-((8-((tetrahydro-2H-pyran-4-yl)amino)pyrido[3,4-d]pyrimidin-2-yl)amino)phenyl)-1H-pyrazol-1-yl)ethanol] here?
The IC50 was 3 nM.

For `COc1cc(-c2cnn(C)c2)ccc1Nc1cc2c(-c3cnn(C)c3)nccc2cn1` [Example 103, N-(2-methoxy-4-(1-methyl-1H-pyrazol-4-yl)phenyl)-5-(1-methyl-1H-pyrazol-4-yl)-2,6-naphthyridin-3-amine], which IC50 is on record?
The IC50 was 12 nM.

For `COc1nc(-c2cnn(C)n2)ccc1Nc1ncc2ccnc(NCC(C)(C)OC)c2n1` [Example 167, N^8-(2-Methoxy-2-methylpropyl)-N^2-(2-methoxy-6-(2-methyl-2H-1,2,3-triazol-4-yl)pyridin-3-yl)pyrido[3,4-d]pyrimidine-2,8-diamine], which IC50 is on record?
The IC50 was 23 nM.

How did the IC50 turn out when `COc1cc(-c2cnn(C)c2)ccc1Nc1ncc2ccnc(NCC3(C)COC3)c2n1` [Example 109, N^2-(2-methoxy-4-(1-methyl-1H-pyrazol-4-yl)phenyl)-N^8-((3-methyloxetan-3-yl)methyl)pyrido(3,4-d]pyrimidine-2,8-diamine] was run?
Its IC50 is 2 nM.
